Test results reported in paper PMC6797808, “Fucosylated inhibitors of recently identified bangle lectin from Photorhabdus asymbiotica” (Scientific Reports, 2019).
Values after ≈ are worked out from the molar mass of the structure shown. Like-named read-outs stand apart in the source and are kept apart here.

How the values were obtained:
[1] = target: T1, PHL (Photorhabdus asymbiotica, UniProt C7BLE4); assay: SPR competitive inhibition of PHL binding to α-L-fucoside sensor chip; settings: for IC50: 25 °C, three independent measurements; for β L-Fuc (affinity improvement factor): IC50,basic unit/(valency × IC50,ligand), basic unit L-Fuc; for PotencyL-Fuc: IC50 L-fucose / IC50 ligand
Experimental: To analyse the competitive inhibition of PHL binding to a multivalent surface, the surface plasmon resonance (SPR) technique was employed. A sensor chip presenting α-L-fucopyranoside residues was treated with a constant concentration of PHL, while an increasing concentration of the ligands was used to determine IC50 (Table 2, Fig. 3). […] To assess the contribution of valency to the affinity increase, an affinity improvement factor β was calculated as the relationship IC50,basic unit/(valency × IC50,ligand)[30].
Surface plasmon resonance (SPR) experiments were performed on a BIAcore T200 instrument (GE Healthcare, UK) at 25 °C, using buffer A supplemented with 0.05% Tween 20 as a running buffer. α-L-fucoside was immobilized onto CM5 sensor chip (GE Healthcare, UK) covered with a carboxymethylated dextran matrix. The sensor chip surface was activated with N-ethyl-N-(3-dimethylaminopropyl)carbodiimide/N-hydroxysuccinimide solution and then coated with streptavidin using the manufacturer’s standard protocol using HBS buffer (10 mM HEPES, 150 mM NaCl, 0.05% Tween 20, pH 7. 5). Unreacted groups were blocked with 1 M ethanolamine-HCl, pH 8.5. Biotinylated carbohydrate (biotinilated monomeric probes, Lectinity, Russia) was injected onto particular measuring channel and pure biotin on blank channel at a flow rate of 5 μl/min.
SPR inhibition measurements were carried out on measuring channel with L-fucoside at a flow rate of 5 µl/min. PHL was diluted to a concentration of 20 μg/ml by the buffer A supplemented with 0.05% Tween 20, mixed 1:1 (v/v) with various concentrations of inhibitors (500–5 μM) in the same buffer and injected onto the sensor chip. The response of lectin bound to the sugar surface at equilibrium was plotted against the concentration of inhibitor in order to determine IC50 (concentration of inhibitor resulting in 50% inhibition of binding). As IC50 is not a constant and depends on the experimental set-up, a parameter called potency was used for characterization. The potency of a tested inhibitor is the ratio of IC50 of a chosen standard inhibitor (in this case L-fucose) and the inhibitor in question. Pure PHL lectin was used as a control (0% inhibition) and channel with pure biotin served as a blank. IC50 was determined from triplicates.

[2] = target: T1, PHL; assay: Hemagglutination inhibition assay with PHL (papain-treated human RBCs O); assay type: cell-based; settings: for MIC (minimal inhibitory concentration, hemagglutination by PHL): RBC O, two independent measurements; for PotencyL-Fuc: MIC L-fucose / MIC ligand; for β L-Fuc (affinity improvement factor): MICbasic unit/(valency × MICligand), basic unit L-Fuc
Experimental: The set of potential ligands 1–10 with different levels of fucosylation was tested, and their inhibition potency on hemagglutination by PHL was assessed (Table 1, Fig. 2). […] To assess the contribution of valency to the affinity increase, an affinity improvement factor β was calculated as the relationship MICbasic unit/(valency × MICligand).
Human red blood cells (RBCs) O were processed according to previously published work[16]. In brief, RBCs O treated with sodium citrate were washed four times by PBS buffer (137 mM NaCl, 2.7 mM KCl, 8 mM Na2HPO4, 1.47 mM KH2PO4, pH 7.4), diluted to 50% by PBS with 0.005% (w/w) sodium azide and treated by 0.1% papain for the duration of 30 minutes.
Hemagglutination inhibition assay was performed for specificity and semi-quantitative affinity of the PHL interaction with the compounds. All carbohydrate inhibitors in 50 mM starting concentration were serially diluted in the PBS buffer and used for a determination of the lowest inhibiting concentration. As a blank, the PBS buffer supplemented with the appropriate amount of DMSO was used in order to exclude potential interference with the interaction. The individual samples were mixed with the lectin in concentration 2 mg/ml in a 5 μl:5 μl ratio. Thereafter, 10 μl of 10% RBCs O in PBS buffer was added, thoroughly mixed and incubated for 10 minutes at room temperature. Following incubation, the mixture was again mixed and the reaction was observed on microscope slides using Levenhuk 2L NG microscope with Levenhuk D2L digital camera (Levenhuk, USA). Imagines were obtained via software ToupView for Windows (Levenhuk). The positive (PHL without inhibitor) and negative control (reaction without PHL) were prepared and processed in the same way using the appropriate volume of PBS buffer instead of the not included components. The lowest concentration of inhibitor able to inhibit agglutination was determined and compared with the standard (L-fucose). Minimal inhibitory concentrations (MIC) of synthesised inhibitors were determined from two independent measurements.

[3] = tested on: P. asymbiotica subsp. australis cells; assay: Cell aggregation (cross-linking) assay; assay type: cell-based, Photorhabdus asymbiotica subsp. australis; settings: three independent measurements
Excerpt: Because of the aggregation of PHL by calixarenes and dendrimers during SPR and ITC experiments, we decided to compare tetravalent compounds at a higher level. We performed a series of in vitro aggregation assays to reveal their aggregation properties towards P. asymbiotica subsp. australis (Table 4, Fig. 5). Prior to each assay, we confirmed the absence of aggregates in two negative controls – bacterial cells in PBS buffer and in the presence of azide 1 as a monomer. With all chosen compounds, we observed bacterial aggregates of a variable size that confirmed that they are capable of interacting with a cell surface. This effect may be caused by interaction of the multivalent inhibitors with PHL or other receptors. The concentration of the first appearance of aggregates varied according to the nature of the ligand used. […] An unexpected observation was that calixarene 7 had the lowest aggregation potential. In contrast to other techniques (hemagglutination, SPR and ITC), where calixarenes 6 and 7 provided similar results, during cross-linking experiments calixarene 7 was four times worse than calixarene 6. At the same time, both tetrameric calixarenes 6 and 7 are in a 1,3-alternate conformation with the two-faced presentation of the fucopyranosyl epitopes on opposite regions probably occupying a similar spatial orientation. The only difference is the tert-Bu group on the upper rim in calixarene 6, which might contribute to nonpolar interactions with whole P. asymbiotica cells.
P. asymbiotica subsp. australis was inoculated from stock cells stored at −80 °C into a standard LB media and were grown in 30 °C under an orbital shaking overnight. Bacterial growth was tracked by measuring the optical density of the broth at 600 nm (OD600) using a spectrophotometer (Biochrom Ltd., BioPhotometer WGA CO 8000 Biowave). Cells were harvested when reaching an OD600 = 0.5. The culture was centrifuged at 4,300 g and room temperature for 2 minutes (Minispin, Eppendorf, Germany) and cells were then washed three times with PBS buffer. Cells were diluted in PBS to OD600 of 2.0 and kept in a fridge until performing the aggregation assay.
P. asymbiotica subsp. australis cells and fucosylated compounds in a concentration ranging from 50 mM to 3.125 mM were gently mixed in a 9:1 (v/v) ratio. The reaction mixtures were left at room temperature for 10 minutes. 5 µl of reaction mixture was then transferred onto a microscope slide and observed under a fluorescence microscope (OLYMPUS IX81 Microscope IX81F-3 with IX2-UCB-2 Controller and X-Cite 120PC Q; Olympus and Excelitas Technologies, Japan, resp. USA). As a negative control, bacterial cells with/without azide 1 as a monomer were used. Three independent measurements were performed.

[4] = target: T1, PHL; assay: Isothermal titration calorimetry of PHL with ligands; assay type: binding
Excerpt: The binding of PHL to different α-L-fucoside compounds was further characterized by isothermal titration calorimetry (ITC), enabling determination of the complete thermodynamic profile of the molecular interactions (Table 3, Fig. 4). […] Because of this, it was not possible to evaluate the data, despite the obvious interaction. The dendrimers also cross-linked/aggregated the protein as with calixarenes, however the curves provided clear outcomes with an affinity in the low micromolar range. The dissociation constants (KD) of all dendrimers correlate with their valency – the higher number of fucose, the more decreased KD. […] The stoichiometry value n corresponds to the number of terminal fucoses per ligand molecule. The n value decreases from 4 to 1 as the number of fucose units increases from 1 to 12 (Table 3).
PHL protein in buffer A was equilibrated at room temperature at least for 30 min before ITC measurement. All ITC experiments were performed using ITC200 calorimeter (Malvern Panalytical, UK) at 25 °C. Carbohydrate ligands dissolved in buffer A were used at different concentrations. Protein in the calorimeter cell (50 μM) was titrated by consecutive additions (2 μl) of the ligand (1.5–5 mM) in the syringe while stirring at 1000 rpm. Integrated heat effects were analysed by nonlinear regression using a single-site binding model and global fitting in Origin 7 software (Microcal Instruments)[37]. The thermodynamic parameters of synthesised inhibitors were determined from two independent measurements.

[5] = target: T1, PHL; parameters: method as in PMID 28806750; settings: SPR competition assay, earlier work; cited from earlier work

T1 sequence (C7BLE4 entry or part of it): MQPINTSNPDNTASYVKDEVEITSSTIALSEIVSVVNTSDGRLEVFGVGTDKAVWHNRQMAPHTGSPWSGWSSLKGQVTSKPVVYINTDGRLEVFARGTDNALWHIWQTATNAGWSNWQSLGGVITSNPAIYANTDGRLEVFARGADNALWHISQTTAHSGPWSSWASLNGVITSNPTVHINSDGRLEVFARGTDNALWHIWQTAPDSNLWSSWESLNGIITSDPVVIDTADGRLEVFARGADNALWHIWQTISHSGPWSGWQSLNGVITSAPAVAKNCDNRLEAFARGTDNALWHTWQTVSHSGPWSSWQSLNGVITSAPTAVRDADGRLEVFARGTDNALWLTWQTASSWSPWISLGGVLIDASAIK

For C[C@@H]1O[C@@H](CCn2cc(COc3c4cccc3Cc3cccc(c3OCc3cn(CC[C@@H]5O[C@@H](C)[C@@H](O)[C@@H](O)[C@@H]5O)nn3)Cc3cccc(c3OCc3cn(CC[C@@H]5O[C@@H](C)[C@@H](O)[C@@H](O)[C@@H]5O)nn3)Cc3cccc(c3OCc3cn(CC[C@@H]5O[C@@H](C)[C@@H](O)[C@@H](O)[C@@H]5O)nn3)C4)nn2)[C@@H](O)[C@H](O)[C@@H]1O [Calixarene 7], which IC50 [1] is on record?
Its IC50 is 0.178 ± 0.02 µM.

What about the “β L-Fuc (affinity improvement factor)” value [1] of the same compound?
The value was 508.

And the PotencyL-Fuc [1]?
The PotencyL-Fuc was 2,029.

What about the “β Azide1 (affinity improvement factor)” value ([1]; basic unit azide 1) of the same compound?
Its value is “approximately 15”.

And the PotencyAzide1 ([1]; relative to azide 1)?
Its PotencyAzide1 is 61.

And the “MIC (minimal inhibitory concentration, hemagglutination by PHL)” value [2]?
Its value is 100 µM (≈ 145 µg/mL).

What about the PotencyL-Fuc ([2]; hemagglutination) of the same compound?
The PotencyL-Fuc was 31.3.

And the “β L-Fuc (affinity improvement factor)” value ([2]; hemagglutination)?
Its value is 7.8.

What about the “β Azide1 (affinity improvement factor)” value ([2]; hemagglutination, basic unit azide 1) of the same compound?
The value was 0.5.

And the PotencyAzide1 ([2]; hemagglutination, relative to azide 1)?
Its PotencyAzide1 is 2.

What about the “The lowest concentration able to aggregate P. asymbiotica cells” value [3] of the same compound?
Its value is 5 mM.

Which Kd ([4]; ITC at 25 °C) does the source give for CO[C@@H]1O[C@@H](C)[C@@H](O)[C@@H](O)[C@@H]1O [α-Me-Fuc, methyl α-L-fucopyranoside, reference compound] here?
The Kd was 267 ± 11 µM.

And the “−TΔS” value ([4]; ITC at 25 °C)?
The value was 9.23 ± 1.03 kcal/mol.

What about the “−ΔG” value ([4]; ITC at 25 °C) of the same compound?
Its value is 4.88 ± 0.22 kcal/mol.

And the “−ΔH” value ([4]; ITC at 25 °C)?
Its value is 14.1 ± 1 kcal/mol.

And the “n (stoichiometry)” value ([4]; ITC at 25 °C, two independent measurements)?
The value was 2.9 ± 0.2.

And the “Potency L-Fuc” value ([4]; ITC, KD L-fucose / KD ligand)?
Its value is 5.

And the “β L-Fuc (affinity improvement factor)” value ([4]; ITC, KD,basic unit/(valency × KD,ligand), basic unit L-Fuc)?
Its value is 5.

And the IC50 [5]?
The IC50 was 40 µM.

What about the “fold stronger ligand than free L-fucose” value [5] of the same compound?
Its value is ~10 fold.

What about the IC50 [1] of the same compound?
Its IC50 is 38.5 ± 1.2 µM.

And the “β L-Fuc (affinity improvement factor)” value [1]?
The value was 9.

What about the PotencyL-Fuc [1] of the same compound?
Its PotencyL-Fuc is 9.

What about the “MIC (minimal inhibitory concentration, hemagglutination by PHL)” value [2] of the same compound?
The value was 400 µM (≈ 71.3 µg/mL).

And the PotencyL-Fuc ([2]; hemagglutination)?
Its PotencyL-Fuc is 7.8.

And the “β L-Fuc (affinity improvement factor)” value ([2]; hemagglutination)?
Its value is 7.8.
